Laboratory results published in patent US7645788B2, “Tetramerous derivative of indole-3-carbinol with anti-carcinogenic activity and method of synthesis of said derivative” (Universita' Degli Studi Di Urbino, priority 2001, dated 2010).

Tests used:
[1] = test system: MCF-7 cells (breast cancer cells expressing estrogen receptors); test: Anti-proliferative effect, [3H]-thymidine incorporation into DNA; format: cell-based, human; settings: line MCF-7, increasing concentrations, up to 72 hours, FIG. 1
Description: (§1) The activity of the tetramerous derivative has been evaluated both in breast cancer cells grown in laboratory expressing estrogen receptors (line MCF-7) and in cells which are negative for said receptors (line MDA-MB-234).
(§2) MCF-7 and MDA-MB-234 cells have been grown in laboratory in a DMEM medium added with 10% of bovine fetal serum, 1% of a penicillin-streptomycin solution, 1% of a solution of non-essential amino acids, 2 mM glutamine and for MCF-7 also with 10 ug/ml of insulin. For the tests the cells are taken and used in their logarithmic growth phase, suspending them again the same fresh medium and exposing them to the tetramerous derivative up to 72 hours at 37° C. in an atmosphere with 5% of CO2. Before the treatment the cells are grown for some hours so as to adhere well to the plastic and start proliferating. In the tests concerning the evaluation of the anti-proliferative activity the synthesis of DNA is evaluated by adding to the cultures 3 μCi/ml of [3H]-thymidine 6 hours before the end of the treatment.
(§3) The cells are exposed during the culture to increasing concentrations of tetramerous derivative, then evaluating the degree of inhibition of their proliferation by incorporating into the DNA tritium-added thymidine (Cover C. M. et al., 1998, Journal of Biological Chemistry no. 273, page 3838-3847).

[2] = test system: MDA-MB-234 cells (negative for estrogen receptors); test: as above; format: cell-based, human; settings: line MDA-MB-234, increasing concentrations, up to 72 hours, FIG. 2
Description: as §1, §2, §3

[3] = test system: MCF-7 cells; test: Cytotoxicity, vital cell count with trypan blue; format: cell-based, human
Description: (§4) In a second set of tests the activity of the tetramerous derivative on the two cell lines has been evaluated as cytotoxicity using a method (Magnani M. et al., 1995, Biochemical Journal no. 312, page 115-123) which allows to recognize vital from dead cells.
(§5) MCF-7 and MDA-MB-234 cells have been grown as previously described. Then, after 24 and after 72 hours of exposition to the tetramerous derivative they are taken and counted in duplicate in a hemocytometer using trypan blue dye to exclude dead cells.

[4] = test system: MDA-MB-234 cells; test: Cytotoxicity, vital cell count with trypan blue; format: cell-based, human; settings: MDA-MB-234, FIG. 4
Description: as §4, §5

[5] = test system: cyclin-dependent kinase cdk6; test: Western blot, level of expression of cdk6 in MCF-7; format: cell-based, human; settings: FIG. 6
From the text: (§6) SDS-PAGE (Laemmli U.K. 1970, Nature 227, 680-685) and Western Blot (Towbin H., Staehelin T., Gordon J. 1979, Proc. Natl:Acad. Sci. USA 76, 4350-4354) techniques have been used to analyze the expression of proteins known as fundamental targets (markers) in the control of the cellular cycle, whose modifications often lead to an uncontrolled cell proliferation: cyclin-dependent kinase cdk6 (Cover C. M., et al, 1998, J. Biol. Chem. 273, 3838-3847), inhibitor p27 (Wang X., et al., 1997, Oncogene 15, 2991-2997; Vidal A., Koff A. 2000, Gene 247, 1-15) and retinoblastoma Rb (Dyson N. 1998, Genes & Development 12, 2245-2262; Guardavaccaro D., et al., 2000, Mol. Cell. Biol. 20 (5), 1797-1815).
(§7) After growing the cells as previously described, the cell cultures undergo the action of increasing doses of tetramerous derivative. Then culture samples are taken and the cells are lysated with B buffer (Hepes 20 mM pH 7.5, NaCl 420 mM, MgCl2 1.5 mM, EDTA 0.2 mM, glycerol 25%) in presence of antiproteolytic agents Nonidet P40 0.5% (v/v), kept under ice for 20 minutes and centrifuged at 12,000 rpm for 10 minutes at 4° C.
(§8) The cell lysate (supernatant liquor) is then diluted 1:1 with Sample Buffer 2× and charged into SDS-PAGE at 12% of acrylamide following Laemmli's method (Laemmli U.K. 1970, Nature 227, 680-685). […]

[6] = test system: inhibitor p27; test: Western blot, level of protein p27 in MCF-7; format: cell-based, human; settings: MCF-7, same concentrations as for cdk6, FIG. 7
From the text: as §6, §7, §8

[7] = test system: retinoblastoma Rb; test: Western blot, phosphorylation of Rb factor (pRb); format: cell-based; settings: Homo sapiens, FIG. 9
From the text: as §6, §7, §8

[8] = test system: enzyme cdk6; test: Western blot, cdk6 in MDA-MB-234; format: cell-based, human
From the text: as §6
as §7, with “C. […]” for “C.”
(§9) Said markers are then evaluated as previously described on estrogen-negative cell line MDA-MB-234.

[9] = test system: inhibitor p27; test: Western blot, p27 in MDA-MB-234; format: cell-based, human
From the text: as §6
as §7, with “C. […]” for “C.”
as §9

SMILES: c1ccc2c3c([nH]c2c1)Cc1c([nH]c2ccccc12)Cc1c([nH]c2ccccc12)Cc1c([nH]c2ccccc12)C3 [tetramerous derivative]
- inhibition of cell proliferation [1]: inhibits in a dose-dependent way
- inhibition of cell proliferation [2]: inhibits in a dose-dependent way
- toxicity (percentage of vital cells) in relation to time of administration ([3]; MCF-7, 24 and 72 hours, FIG. 5): time-dependent
- toxicity (percentage of vital cells) in relation to amount administered ([3]; MCF-7, FIG. 3): dose-dependent
- toxicity (percentage of vital cells) in relation to amount administered [4]: dose-dependent
- level of expression of cdk6 ([5]; MCF-7, 15 μM): great reduction
- level of expression of cdk6 ([5]; MCF-7, 50 μM): sudden decrease
- level of protein p27 [6]: increases
- inhibition at 30 µM [7]: 60%
- level of enzyme cdk6 [8]: reduction
- level of inhibitor p27 [9]: increase
